Measured values: patent publication US20240376073A1 (Hoffmann-La Roche Inc., priority 2021, published 2024)
Structures can show the parent of a compound that is named as a salt.

tested on: Acinetobacter baumannii ATCC17961; test: Antimicrobial susceptibility testing: 90% growth inhibitory concentration (IC90) determination; assay type: cell-based; conditions: Acinetobacter baumannii ATCC17961; Iso-Sensitest broth; growth by OD 600 nm over 16 h; 35±2° C.; read-out: ATCC 17961 IC90
Procedure, shortened: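 Twofold serial dilutions (e.g. 50 to 0.097 μM final) in Iso-Sensitest broth, inoculated at ~5×10^(5) CFU/ml, incubated at 35±2° C. OD600 read every 20 min over 16 h; IC90 derived from growth inhibition during logarithmic growth.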

SMILES | IC90
Cn1c(-c2ccc(OC(F)F)c(Cl)c2F)cnc1C(=O)Nc1ccc(C(=O)N2CCN(C(=O)[C@@H]3C[C@@H](O)C[N+]3(C)C)CC2)c(Cl)c1 [Example B47, 5-[3-chloro-4-(difluoromethoxy)-2-fluoro-phenyl]-N-[3-chloro-4-[4-[(2S,4R)-4-hydroxy-1,1-dimethyl-pyrrolidin-1-ium-2-carbonyl]piperazine-1-carbonyl]phenyl]-1-methyl-imidazole-2-carboxamide; iodide] | 39 nM
Cn1c(-c2ccc(OC(F)F)c(F)c2Cl)cnc1C(=O)Nc1ccc(C(=O)N2CCN(C(=O)[C@@H]3C[C@@H](O)C[N+]3(C)C)CC2)c(Cl)c1 [Example B53] | 91 nM
COc1ccc(-c2cnc(C(=O)Nc3ccc(C(=O)N[C@H]4[C@@H]5CN(C(=O)[C@@H]6C[C@@H](O)C[N+]6(C)C)C[C@@H]54)c(Cl)c3)n2C)c(F)c1F [Example B54, N-[3-chloro-4-[(exo)-3-[(2 S,4R)-4-hydroxy-1,1-dimethyl-pyrrolidin-1-ium-2-carbonyl]-3-azabicyclo[3.1.01 hexan-6-yl]carbamoyl]phenyl]-5-(2,3-difluoro-4-methoxy-phenyl)-1-methyl-imidazole-2-carboxamide formate] | 350 nM
COc1ccc(-c2cnc(C(=O)Nc3ccc(C(=O)N[C@H]4[C@@H]5CN(C(=O)N[C@@H]6C[N+](C)(C)C[C@H]6O)C[C@@H]54)c(Cl)c3)n2C)c(F)c1F [Example B55, (exo)-6-[[2-chloro-4-[[5-(2,3-difluoro-4-methoxy-phenyl)-1-methyl-imidazole-2-carbonyl]amino]benzoyl]amino]-N-[(trans)-4-hydroxy-1,1-dimethyl-pyrrolidin-1-ium-3-yl]-3-azabicyclo[3.1.0]hexane-3-carboxamide formate] | 150 nM
Cn1c(-c2ccc(OCF)c(F)c2F)cnc1C(=O)Nc1ccc(C(=O)N2CCN(C(=O)C[N+](C)(C)C)CC2)c(Cl)c1 [Example B56, [2-[4-[2-chloro-4-[[5-[2,3-difluoro-4-(fluoromethoxy)phenyl]-1-methyl-imidazole-2-carbonyl]amino]benzoyl]piperazin-1-yl]-2-oxo-ethyl]-trimethyl-ammonium; formate] | 61 nM
Cn1c(-c2ccc(OC(F)F)c(F)c2Cl)cnc1C(=O)Nc1ccc(C(=O)N2CCN(C(=O)C3CC[N+](C)(CC(N)=O)CC3)CC2)c(Cl)c1 (stereo not drawn) [Example C1, N-[4-[4-[1-(2-Amino-2-oxo-ethyl)-1-methyl-piperidin-1-ium-4-carbonyl]piperazine-1-carbonyl]-3-chloro-phenyl]-5-[2-chloro-4-(difluoromethoxy)-3-fluoro-phenyl]-1-methyl-imidazole-2-carboxamide;formate] | 23 nM

same assay, conditions: Acinetobacter baumannii, ATCC17961, 16 h, read-out: ATCC 17961 IC90, Acinetobacter baumannii ATCC17961; Iso-Sensitest broth; growth by OD 600 nm over 16 h; 35±2° C.

SMILES | IC90
COc1ccc(-c2cnc(C(=O)Nc3ccc(C(=O)N4CCN(C(=O)[C@@H]5[C@@H](O)CC[N+]5(C)C)CC4)c(Cl)c3)n2C)c(F)c1F [Example B36, N-[3-chloro-4-[4-[(2S,3S)-3-hydroxy-1,1-dimethyl-pyrrolidin-1-ium-2-carbonyl]piperazine-1-carbonyl]phenyl]-5-(2,3-difluoro-4-methoxy-phenyl)-1-methyl-imidazole-2-carboxamide; formate] | 220 nM
COc1ccc(-c2cnc(C(=O)Nc3ccc(C(=O)N4CCN(C(=O)[C@@H]5C[C@H](O)CC[N+]5(C)C)CC4)c(Cl)c3)n2C)c(F)c1F [Example B38, N-[3-chloro-4-[4-[(2S,4R)-4-hydroxy-1,1-dimethyl-piperidin-1-ium-2-carbonyl]piperazine-1-carbonyl]phenyl]-5-(2,3-difluoro-4-methoxy-phenyl)-1-methyl-imidazole-2-carboxamide; formate] | 180 nM
COc1ccc(-c2cnc(C(=O)Nc3ccc(C(=O)N4CCN(C(=O)NC5C[N+](C)(C)CC5O)CC4)c(Cl)c3)n2C)c(F)c1F (stereo not drawn) [Example B39, 4-[2-chloro-4-[[5-(2,3-difluoro-4-methoxy-phenyl)-1-methyl-imidazole-2-carbonyl]amino]benzoyl]-N-(4-hydroxy-1,1-dimethyl-pyrrolidin-1-ium-3-yl)piperazine-1-carboxamide; formate] | 110 nM
COc1ccc(-c2cnc(C(=O)Nc3ccc(C(=O)N4CCN(C(=O)[C@@H]5C[C@@H](O)C[N+]5(C)C)CC4)c(Cl)c3)n2C)c(C(F)F)c1F [Example B40, N-[3-chloro-4-[4-[(2S,4R)-4-hydroxy-1,1-dimethyl-pyrrolidin-1-ium-2-carbonyl]piperazine-1-carbonyl]phenyl]-5-[2-(difluoromethyl)-3-fluoro-4-methoxy-phenyl]-1-methyl-imidazole-2-carboxamide; formate] | 260 nM
Cn1c(-c2ccc(OC(F)F)c(F)c2F)cnc1C(=O)Nc1ccc(C(=O)N2CCN(C(=O)[C@@H]3C[C@@H](O)C[N+]3(C)C)CC2)c(Cl)c1 [Example B41, N-[3-chloro-4-[4-[(2S,4R)-4-hydroxy-1,1-dimethyl-pyrrolidin-1-ium-2-carbonyl]piperazine-1-carbonyl]phenyl]-5-[4-(difluoromethoxy)-2,3-difluoro-phenyl]-1-methyl-imidazole-2-carboxamide; formate] | 76 nM
COc1ccc(-c2cnc(C(=O)Nc3ccc(C(=O)N4CCN(C(=O)[C@@H]5C[C@@H](CO)C[N+]5(C)C)CC4)c(Cl)c3)n2C)c(F)c1F [Example B42, N-[3-chloro-4-[4-[(2S,4R)-4-(hydroxymethyl)-1,1-dimethyl-pyrrolidin-1-ium-2-carbonyl]piperazine-1-carbonyl]phenyl]-5-(2,3-difluoro-4-methoxy-phenyl)-1-methyl-imidazole-2-carboxamide; formate] | 140 nM
COc1ccc(-c2cnc(C(=O)Nc3ccc(C(=O)N4CCN(C(=O)[C@@H]5C[C@@H](O)C[N+]5(C)C)CC4)c(Cl)c3)n2C)c(Cl)c1F [Example B43, 5-(2-chloro-3-fluoro-4-methoxy-phenyl)-N-[3-chloro-4-[4-[(2S,4R)-4-hydroxy-1,1-dimethyl-pyrrolidin-1-ium-2-carbonyl]piperazine-1-carbonyl]phenyl]-1-methyl-imidazole-2-carboxamide; formate] | 120 nM
COc1ccc(-c2cnc(C(=O)Nc3ccc(C(=O)N4CCN(C(=O)[C@@H]5[C@H](O)CC[N+]5(C)C)CC4)c(Cl)c3)n2C)c(F)c1F [Example B44, N-[3-chloro-4-[4-[(2S,3R)-3-hydroxy-1,1-dimethyl-pyrrolidin-1-ium-2-carbonyl]piperazine-1-carbonyl]phenyl]-5-(2,3-difluoro-4-methoxy-phenyl)-1-methyl-imidazole-2-carboxamide; formate] | 420 nM
Cn1c(-c2ccc(OCF)c(F)c2F)cnc1C(=O)Nc1ccc(C(=O)N2CCN(C(=O)[C@@H]3C[C@@H](O)C[N+]3(C)C)CC2)c(Cl)c1 [Example B45, N-[3-chloro-4-[4-[(2S,4R)-4-hydroxy-1,1-dimethyl-pyrrolidin-1-ium-2-carbonyl]piperazine-1-carbonyl]phenyl]-5-[2,3-difluoro-4-(fluoromethoxy)phenyl]-1-methyl-imidazole-2-carboxamide; formate] | 93 nM
COc1ccc(-c2cnc(C(=O)Nc3ccc(C(=O)N4CCN(C(=O)[C@@H]5CC[C@H](O)C[N+]5(C)C)CC4)c(Cl)c3)n2C)c(F)c1F [Example B46, N-[3-chloro-4-[4-[(2S,5S)-5-hydroxy-1,1-dimethyl-piperidin-1-ium-2-carbonyl]piperazine-1-carbonyl]phenyl]-5-(2,3-difluoro-4-methoxy-phenyl)-1-methyl-imidazole-2-carboxamide; formate] | 120 nM
COc1ccc(-c2cnc(C(=O)Nc3ccc(C(=O)N4CCN(C(=O)[C@@H]5C[C@@H](O)C[N+]5(C)C)CC4)c(Cl)c3)n2C)c(F)c1Cl [Example B48, 5-(3-chloro-2-fluoro-4-methoxy-phenyl)-N-[3-chloro-4-[4-[(2S,4R)-4-hydroxy-1,1-dimethyl-pyrrolidin-1-ium-2-carbonyl]piperazine-1-carbonyl]phenyl]-1-methyl-imidazole-2-carboxamide formate] | 76 nM
COc1ccc(-c2cnc(C(=O)Nc3ccc(C(=O)N4CCN(C(=O)[C@@H]5C=CC[N+]5(C)C)CC4)c(Cl)c3)n2C)c(F)c1F [Example B49, N-[3-chloro-4-[4-[(2S)-1,1-dimethyl-2,5-dihydropyrrol-1-ium-2-carbonyl]piperazine-1-carbonyl]phenyl]-5-(2,3-difluoro-4-methoxy-phenyl)-1-methyl-imidazole-2-carboxamide formate] | 120 nM
COc1ccc(-c2cnc(C(=O)Nc3ccc(C(=O)N4CCN(C(=O)[C@@H]5[C@@H](O)[C@@H](O)C[N+]5(C)C)CC4)c(Cl)c3)n2C)c(F)c1F [Example B50, N-[3-chloro-4-[4-[(2S,3R,4S)-3,4-dihydroxy-1,1-dimethyl-pyrrolidin-1-ium-2-carbonyl]piperazine-1-carbonyl]phenyl]-5-(2,3-difluoro-4-methoxy-phenyl)-1-methyl-imidazole-2-carboxamide formate] | 250 nM
COc1ccc(-c2cnc(C(=O)Nc3ccc(C(=O)N4CCN(C(=O)[C@@H]5C[C@@H](O)C[N+]5(C)C)CC4)c(Cl)c3)n2C)c(F)c1C#N [Example B51, N-[3-chloro-4-[4-[(2S,4R)-4-hydroxy-1,1-dimethyl-pyrrolidin-1-ium-2-carbonyl]piperazine-1-carbonyl]phenyl]-5-(3-cyano-2-fluoro-4-methoxy-phenyl)-1-methyl-imidazole-2-carboxamide; formate] | 540 nM
COc1ccc(-c2cnc(C(=O)Nc3ccc(C(=O)N4CCN(C(=O)[C@@H]5C[C@@H](O)C[N+]5(C)C)CC4)c(Cl)c3)n2C)c(F)c1C(F)(F)F [Example B52, N-[3-chloro-4-[4-[(2S,4R)-4-hydroxy-1,1-dimethyl-pyrrolidin-1-ium-2-carbonyl]piperazine-1-carbonyl]phenyl]-5-[2-fluoro-4-methoxy-3-(trifluoromethyl)phenyl]-1-methyl-imidazole-2-carboxamide; formate] | 520 nM
